Test results reported in US20190029960A1, “Therapeutic Nanoparticles Having EGFR Ligands and Methods of Making and Using Same” (Pfizer Inc., priority 2016, published 2019).

Legend:
[1] = target: T1, recombinant human EGFR (Homo sapiens, UniProt P00533); assay: EGF competition ELISA; format: binding
T1 construct: Fc; purchased R&D Systems
Description: Plates were blocked for 2 h with 2% BSA in PBS at RT. […] Plates were washed three times with PBS containing 0.05% Tween-20 (PBS-T) and then incubated with a 1:10,000 dilution of streptavidin-HRP (Thermo Fisher Scientific) diluted in assay buffer for 90 min at RT. Plates were washed an additional three times with PBS-T, and then incubated with TMB substrate (BioFx) for 15 min at RT. Reactions were stopped with stop solution (BioFx) and absorbance was read at 450 nm in a microplate reader (SpectraMax M5e, Molecular Devices).
Plates were blocked for 2 hours with 2% BSA in PBS at room temperature (RT). […] Peptides were reconstituted as 100% DMSO stocks, resulting in a final concentration of DMSO in the assay of 2% for all samples. Plates were washed three times with PBS containing 0.05% Tween-20 (PBS-T) and then incubated with a 1:10,000 dilution of streptavidin-HRP (Piece) diluted in assay buffer for 90 minutes at RT. Plates were washed an additional three times with PBS-T and then incubated with TMB substrate (BioFx) for 15 minutes at RT. The reaction was stopped with stop solution (BioFx) and absorbance was read at 450 nm in a microplate reader (SpectraMax M5e, Molecular Devices).

[2] = target: T2, Fc tagged recombinant human EGFR (rhEGFR-Fc) (Homo sapiens, UniProt P00533); format: binding; conditions: Without EGF
T2 construct: purchased R&D Systems 344-ER-050
Description: (§1) Surface plasmon resonance (SPR) binding studies were carried out on a Biacore T200 instrument (GE Healthcare). Approximately 10,000 RU of anti-Fc antibody (GE Healthcare, Cat #BR100839) was immobilized via amine coupling on each of flow cells 1 and 2 of a CM5 dextran-coated gold sensor chip (GE Healthcare, Cat #BR100530). […] The contact time and resulting amount of rhEGFR-Fc capture was varied based on the nature of the analyte, namely whether it was a peptide or nanoparticle.
(§2) Peptide binding assays were carried out in 10 mM PBS buffer supplemented with 0.05% surfactant P20 and 5% DMSO by volume, at 25° C. Peptides were injected over the rhEGFR-Fc surface for 60 s, followed by dissociation (buffer injection) for 60 s and regeneration with a 10 s pulse of 3M MgCl2. A fresh rhEGFR-Fc surface was generated for each concentration of each peptide tested. Peptide binding data was analyzed by fitting to a 1:1 Langmuir kinetic model to obtain the on-rate (ka), off-rate (kd) and/or equilibrium binding constant (KD) of the interaction.

[3] = target: T3, EGF bound EGFR (Homo sapiens, UniProt P00533); assay: SPR peptide binding, rhEGF pre-injected; conditions: With EGF
T3 construct: purchased R&D Systems 344-ER-050 (rhEGFR-Fc); 236-EG (rhEGF)
Description: as §1, §2

T1 sequence (P00533 with tags, fused parts or gaps limits assumed): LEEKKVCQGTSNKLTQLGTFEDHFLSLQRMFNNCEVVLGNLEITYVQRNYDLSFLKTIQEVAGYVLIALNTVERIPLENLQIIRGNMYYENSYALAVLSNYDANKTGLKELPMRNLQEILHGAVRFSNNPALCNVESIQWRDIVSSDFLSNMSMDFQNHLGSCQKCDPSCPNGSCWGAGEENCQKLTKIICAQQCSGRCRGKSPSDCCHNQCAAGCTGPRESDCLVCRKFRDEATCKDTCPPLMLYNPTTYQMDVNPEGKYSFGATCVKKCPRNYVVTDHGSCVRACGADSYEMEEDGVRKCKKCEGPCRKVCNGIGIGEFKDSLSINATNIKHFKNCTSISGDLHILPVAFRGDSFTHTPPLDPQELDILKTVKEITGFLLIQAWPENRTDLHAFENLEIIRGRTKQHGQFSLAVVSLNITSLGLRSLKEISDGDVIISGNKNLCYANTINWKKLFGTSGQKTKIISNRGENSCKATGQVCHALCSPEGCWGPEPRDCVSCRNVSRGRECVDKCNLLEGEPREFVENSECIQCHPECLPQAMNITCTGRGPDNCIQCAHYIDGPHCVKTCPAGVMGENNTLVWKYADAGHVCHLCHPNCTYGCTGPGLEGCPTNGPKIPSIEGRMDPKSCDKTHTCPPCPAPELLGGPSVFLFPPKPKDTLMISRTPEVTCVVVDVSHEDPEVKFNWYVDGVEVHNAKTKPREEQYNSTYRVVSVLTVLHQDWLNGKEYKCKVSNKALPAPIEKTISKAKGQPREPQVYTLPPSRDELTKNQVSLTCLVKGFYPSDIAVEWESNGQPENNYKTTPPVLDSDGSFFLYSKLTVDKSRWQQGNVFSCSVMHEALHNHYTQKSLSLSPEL
T3 sequence (P00533 with tags, fused parts or gaps limits assumed): as above
T3 sequence (P01133 971-1023 partner limits assumed): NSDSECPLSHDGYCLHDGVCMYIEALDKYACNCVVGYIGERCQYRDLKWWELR
T2 sequence (P00533 with tags, fused parts or gaps limits assumed): as the sequence (P00533 with tags, fused parts or gaps limits assumed) above

Row | Compound | IC50 [1] [µM] | kd [2] | kd [3]
1 | CC[C@H](C)[C@H](NC(=O)[C@@H]1CSSC[C@H](NC(=O)[C@H](CCC(=O)O)NC(=O)[C@H](CO)NC(C)=O)C(=O)N[C@@H](Cc2ccccc2)C(=O)N2CCC[C@H]2C(=O)N[C@@H](C)C(=O)N[C@@H](C)C(=O)N2CCC[C@H]2C(=O)N[C@@H](CC(=O)O)C(=O)N[C@@H](Cc2c[nH]c3ccccc23)C(=O)N[C@@H](CC(C)C)C(=O)N[C@@H](CO)C(=O)N1)C(=O)N[C@@H](CC(C)C)C(=O)NCC(=O)NCC(=O)N[C@@H](CCCCNC(=O)CCOCCOCCOCCOCCOCCNC(=O)CCC(=O)N1Cc2ccccc2C#Cc2ccccc21)C(N)=O [Peptide P1-3] | 4.1 |  | 
2 | CC(=O)N[C@@H](CC(=O)O)C(=O)N1CCC[C@H]1C(=O)N[C@H]1CSSC[C@@H](C(=O)N[C@@H](CC(C)C)C(=O)N[C@@H](CCC(N)=O)C(=O)NCC(=O)NCC(=O)N[C@@H](CCCCNC(=O)CCOCCOCCOCCOCCOCCNC(=O)CCC(=O)N2Cc3ccccc3C#Cc3ccccc32)C(N)=O)NC(=O)[C@H](CCC(=O)O)NC(=O)[C@H](CCCNC(=N)N)NC(=O)CNC(=O)[C@H](Cc2c[nH]c3ccccc23)NC(=O)[C@H](C(C)C)NC(=O)[C@H](CCC(=O)O)NC(=O)[C@H](Cc2c[nH]c3ccccc23)NC(=O)[C@H]([C@@H](C)O)NC1=O [Peptide P2] |  | 9 ± 2 × 10^−3 s^−1 | 7 ± 2 × 10^−3 s^−1
